Assay results: patent US8101389B2, “Bacterial glutamine synthetases and methods of use” (Athenix Corp, priority 2006, dated 2012)

Columns and labels:
[1] = system: ags1 glutamine synthetase enzyme; test: Enzymatic activity of purified 6Xhis-tagged glutamine synthetases with and without glufosinate; type: biochemical, Serratia marcescens; details: 100 uM glufosinate
Text: (§1) ags1m1 (pAX3421) and ags1m2 (pAX3422) were subcloned into E. coli expression vector pRSF1B (Invitrogen) so as to create an N-terminus encoding a 6Xhis tag, purified and characterized kinetically.

[2] = molecular target: T1, Serratia marcescens ATX 20345 glutamine synthetase AGS1, wild type, SEQ ID NO:2 (Serratia marcescens, UniProt A0A0F6KS08); test: enzymatic assay, kinetics of wild-type AGS1; type: biochemical
T1 construct: gene cloned as pAX685; dodecamer from known biology
T1 sequence (A0A0F6KS08 entry or part of it): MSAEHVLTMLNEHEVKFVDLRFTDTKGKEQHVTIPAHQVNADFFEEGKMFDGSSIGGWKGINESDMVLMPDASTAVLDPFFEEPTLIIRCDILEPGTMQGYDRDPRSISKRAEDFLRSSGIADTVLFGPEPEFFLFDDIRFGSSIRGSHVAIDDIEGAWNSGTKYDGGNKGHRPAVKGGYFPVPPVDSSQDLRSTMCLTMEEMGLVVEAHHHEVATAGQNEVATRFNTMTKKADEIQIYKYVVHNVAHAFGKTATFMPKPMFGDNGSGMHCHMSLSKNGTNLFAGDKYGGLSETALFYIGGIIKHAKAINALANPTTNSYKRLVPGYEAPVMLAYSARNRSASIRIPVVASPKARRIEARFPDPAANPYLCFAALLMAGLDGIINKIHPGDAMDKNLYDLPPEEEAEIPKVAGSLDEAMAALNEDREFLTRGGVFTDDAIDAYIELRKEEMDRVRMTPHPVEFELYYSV
Text: as §1
ags1m21 (SEQ ID NO:41) encodes the AGS1m21 protein (SEQ ID NO:42). AGS1m21 is a variant of AGS1 that contains a similar amino acid change identified in other variants (V214M), as well as two novel mutations (N160S and G167R). This enzyme was expressed in E. coli, purified, and the kinetic values Km(glutamate) and Ki(glufosinate) of the variant measured by enzymatic assay.
(§2) The unmodified enzyme (AGS1) was compared to AGS1(AD-) and AGS1m17(AD-) by carrying out enzymatic assays on both enzymes following purification from E. coli. A glutamine synthetase enzyme from E. coli (GlnA) was also tested.

[3] = molecular target: Serratia marcescens glutamine synthetase AGS1 variant AGS1m17(AD-), F81S, P185S, H212T, V214A, G218S, I303N plus tyrosine 398 to phenylalanine, SEQ ID NO:46 (Serratia marcescens, UniProt A0A0F6KS08, F81S/G218S/H212T/I303N/P185S/V214A/Y398F); test: enzymatic assay, kinetics of AGS1m17(AD-); type: biochemical
Serratia marcescens glutamine synthetase AGS1 variant AGS1m17(AD-), F81S, P185S, H212T, V214A, G218S, I303N plus tyrosine 398 to phenylalanine, SEQ ID NO:46, sequence (A0A0F6KS08 whole entry F81S/P185S/H212T/V214A/G218S/I303N/Y398F): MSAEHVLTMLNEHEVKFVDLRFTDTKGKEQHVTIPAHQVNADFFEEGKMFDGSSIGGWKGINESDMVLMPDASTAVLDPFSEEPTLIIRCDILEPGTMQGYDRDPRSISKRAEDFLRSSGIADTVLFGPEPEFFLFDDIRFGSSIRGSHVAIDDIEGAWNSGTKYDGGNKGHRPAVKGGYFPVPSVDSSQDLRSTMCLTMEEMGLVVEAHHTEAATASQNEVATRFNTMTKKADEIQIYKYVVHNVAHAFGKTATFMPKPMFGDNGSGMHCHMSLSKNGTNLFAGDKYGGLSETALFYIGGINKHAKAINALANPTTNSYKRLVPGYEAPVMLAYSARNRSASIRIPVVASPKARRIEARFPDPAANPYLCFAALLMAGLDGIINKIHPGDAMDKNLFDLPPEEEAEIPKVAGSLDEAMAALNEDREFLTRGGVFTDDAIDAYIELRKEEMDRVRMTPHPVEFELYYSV
Procedure: ags1m17(ad-) (SEQ ID NO:45) encoding the AGS1m17(AD-) protein (SEQ ID NO:46), is a variant of ags1m17 in which the putative adenylylation site has been removed by mutating the tyrosine at position 398 of AGS1 to a phenylalanine by site directed mutagenesis.
as §2

[4] = molecular target: Serratia marcescens glutamine synthetase AGS1 variant AGS1m1 (pAX3421), V39I, V214M, SEQ ID NO:4 (Serratia marcescens, UniProt A0A0F6KS08, V214M/V39I); test: enzymatic assay of purified 6Xhis AGS1m1 with glufosinate; type: biochemical; details: 100 uM glufosinate
Serratia marcescens glutamine synthetase AGS1 variant AGS1m1 (pAX3421), V39I, V214M, SEQ ID NO:4, sequence (A0A0F6KS08 whole entry V39I/V214M): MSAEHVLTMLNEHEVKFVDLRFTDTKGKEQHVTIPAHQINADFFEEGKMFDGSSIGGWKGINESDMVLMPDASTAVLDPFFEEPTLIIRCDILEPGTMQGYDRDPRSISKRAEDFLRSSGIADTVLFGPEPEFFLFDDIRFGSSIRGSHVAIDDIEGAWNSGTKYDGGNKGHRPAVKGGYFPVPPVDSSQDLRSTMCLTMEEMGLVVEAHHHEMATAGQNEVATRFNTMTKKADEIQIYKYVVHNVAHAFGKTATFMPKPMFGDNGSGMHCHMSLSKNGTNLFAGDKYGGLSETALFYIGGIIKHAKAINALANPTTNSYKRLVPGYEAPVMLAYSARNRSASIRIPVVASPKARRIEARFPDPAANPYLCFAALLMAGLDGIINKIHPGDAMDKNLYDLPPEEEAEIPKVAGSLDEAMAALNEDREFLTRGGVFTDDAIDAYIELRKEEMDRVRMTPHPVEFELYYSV
Text: as §1

[5] = system: E. coli cells with AGS1 variant AGS1m1 (pAX3421), V39I, V214M, SEQ ID NO:4; test: growth of E. coli on glufosinate plates, ags1m1; type: cell-based
Procedure: Mutants of the bacterial glutamine synthetase gene ags1 (SEQ ID NO:1) were created by error-prone mutagenesis using the GENEMORPH® Random Mutagenesis kit, and also using oligo-directed mutagenesis as known in the art. However, many methods are available for creating libraries of mutants. The resulting mutants were cloned into a pUC19 vector, electroporated into either XL-1 or DH5 alpha E. coli cells, and selected for growth on M63+ agar media containing antibiotic and 2, 10, or 20 mM glufosinate. Twenty-two clones were identified as growing on 20 mM glufosinate, and picked for further analysis.
ags1m2 was mutagenized by error-prone mutagenesis using GENEMORPH® II Random Mutagenesis kit (Stratagene) according to manufacturer's instructions. Mutagenized PCR product was digested with Sac I and Hind III, and ligated into a pUC vector, similarly digested with Sac I and Hind III. Ligations were transformed into E. coli cells, and plated onto M63+ plates containing antibiotic, and 125 mM glufosinate. Clones growing on 125 mM glufosinate plates were retested on 200 mM glufosinate plates, and compared to similar platings of ags1m1 and ags1m2. […] The DNA sequence of the ags open reading frame in pAX3439 was sequenced, and the gene designated as ags1m16. The DNA sequence of ags1m16 is represented herein as SEQ ID NO:31, and the amino acid sequence is represented herein as SEQ ID NO:32. […]

[6] = system: E. coli cells with AGS1 variant AGS1m16 (pAX3439), F81S, P185S, H212N, G218S, I303N, SEQ ID NO:32; test: growth of E. coli on glufosinate plates, ags1m16; type: cell-based
Procedure: ags1m2 was mutagenized by error-prone mutagenesis using GENEMORPH® II Random Mutagenesis kit (Stratagene) according to manufacturer's instructions. Mutagenized PCR product was digested with Sac I and Hind III, and ligated into a pUC vector, similarly digested with Sac I and Hind III. Ligations were transformed into E. coli cells, and plated onto M63+ plates containing antibiotic, and 125 mM glufosinate. Clones growing on 125 mM glufosinate plates were retested on 200 mM glufosinate plates, and compared to similar platings of ags1m1 and ags1m2. […] The DNA sequence of the ags open reading frame in pAX3439 was sequenced, and the gene designated as ags1m16. The DNA sequence of ags1m16 is represented herein as SEQ ID NO:31, and the amino acid sequence is represented herein as SEQ ID NO:32. AGS1m16 differs from AGS1m2 at a single amino acid at position H212 of the protein, which is modified from Histidine (‘H’) to Asparagine (‘N’), and contains a total of five amino acid changes relative to the wild-type AGS1 (see FIG. 1 and Table 3).
(§3) Clones expressing AGS1m17, AGS1m18, AGS1m19, or AGS1m20 were all found to be able to grow on plates containing 375 mM glufosinate, whereas no growth of clones expressing AGS1m16 was observed on plates containing 375 mM glufosinate.

[7] = system: E. coli cells with AGS1 variant AGS1m17, F81S, P185S, H212T, V214A, G218S, I303N, SEQ ID NO:34; test: growth of E. coli on glufosinate plates, ags1m17; type: cell-based
Procedure: as §3

[8] = system: E. coli cells with AGS1 variant AGS1m18, F81S, P185S, H212T, V214S, G218S, I303N, SEQ ID NO:36; test: growth of E. coli on glufosinate plates, ags1m18; type: cell-based
Procedure: as §3

[9] = system: E. coli cells with AGS1 variant AGS1m20, F81S, P185S, H212M, V214H, G218S, I303N, SEQ ID NO:40; test: growth of E. coli on glufosinate plates, ags1m20; type: cell-based
Procedure: as §3

[10] = system: E. coli DH5α cells with TKH2; test: growth of DH5α with TKH2 on M63 minimal plates with glufosinate; type: cell-based; details: 20 mM glufosinate
Procedure: To obtain the gene(s) responsible for the strain's resistance to glufosinate, a small insert plasmid genomic library was prepared from strain ATX 20345. Genomic DNA was extracted from a fresh, overnight LB culture using SDS, proteinase K cell lysis followed by CTAB/NaCl, phenol-chloroform extractions. Partial digests were performed on the genomic DNA using 0.1 units Sau3A I at 37° C. for 30 minutes followed by the addition of EDTA and incubation at 65° C. for 20 minutes to halt the reaction. Resultant DNA was approximately 4-12 kb in size. The DNA was gel purified, treated with T4 polynucletide kinase, then ligated into BamH I digested pUC18 vector. Ligations were transformed into DH5a and plated directly on M63 minimal media plates containing 20 mM glufosinate, 100 μg/ml carbenicillin, and 0.1 mM IPTG. After several days, 4 colonies had appeared, tentatively named TKH1-4. They were grown up and plasmid DNA was isolated and analyzed by digestion with EcoR I+ Hind III, and Pst I/Sac Ito compare inserts. Though all four clones contained inserts, TKH2 and TKH3 were identical by restriction digest analysis, and both contained inserts of approximately 4.9 kb.
To reconfirm that TKH2 and TKH3 confer resistance to 20 mM glufosinate, the purified plasmids were retransformed into DH5α cells. pUC18 was retransformed as a negative control. […]

[11] = Table 5, Km glutamate, Ki glufosinate

CP(=O)(O)CCC(N)C(=O)O (stereo not shown) [glufosinate]
inhibition of wild type ags1 glutamine synthetase enzyme [1]: completely inhibited | Ki [2]: 0.013 mM | inhibition by glufosinate ([2]; 100 uM glufosinate): completely inhibited | (Kcat*Ki)/Km [2, 11]: 0.32 | Ki [3]: 23 mM | (Kcat*Ki)/Km [3, 11]: 110.04 | activity in the presence of glufosinate [4]: showed activity | growth on 200 mM glufosinate plates ([5]; 200 mM glufosinate): did not grow | growth on glufosinate minimal M63+ agar media ([5]; 2, 10, 20, 50, and 100 mM, DH5a, Clone 2): shown to grow | growth on 200 mM glufosinate plates ([6]; 200 mM glufosinate): ability to grow | growth on plates containing 375 mM glufosinate ([6]; 375 mM glufosinate): no growth | glufosinate concentrations up to which cells are able to grow ([6]; cells containing AGS1m16): 200 mM | growth on plates containing 375 mM glufosinate [7]: able to grow | growth on plates containing 375 mM glufosinate [8]: able to grow | growth on plates containing 375 mM glufosinate [9]: able to grow | growth in the presence of glufosinate [10]: grew in the presence of glufosinate
